# From patent US11993599B2, “Therapeutic compounds” (Genentech, Inc., priority 2021, dated 2024)
# Legend:
# BRG1 = target: T1, BRG1 (Homo sapiens, UniProt P51532); assay: Immunofluorescence assay for BRG1 degradation in SW1573 cells; type: cell-based; conditions: 20 hours incubation; for DC50: immunofluorescence mean nuclear signal, read-out: BRG1 IF Degradation IC50; for Dmax: SW1573, 20 h, normalized to a known degrader control, read-out: BRG1 IF Degradation Sinf (%)
# T1 construct: either BRM primary antibody (Cell signaling Cat #11966) or BRG primary antibody (Abcam, ab 110641); endogenous in cells; host or cells: SW1573
# T1 sequence (P51532 whole entry): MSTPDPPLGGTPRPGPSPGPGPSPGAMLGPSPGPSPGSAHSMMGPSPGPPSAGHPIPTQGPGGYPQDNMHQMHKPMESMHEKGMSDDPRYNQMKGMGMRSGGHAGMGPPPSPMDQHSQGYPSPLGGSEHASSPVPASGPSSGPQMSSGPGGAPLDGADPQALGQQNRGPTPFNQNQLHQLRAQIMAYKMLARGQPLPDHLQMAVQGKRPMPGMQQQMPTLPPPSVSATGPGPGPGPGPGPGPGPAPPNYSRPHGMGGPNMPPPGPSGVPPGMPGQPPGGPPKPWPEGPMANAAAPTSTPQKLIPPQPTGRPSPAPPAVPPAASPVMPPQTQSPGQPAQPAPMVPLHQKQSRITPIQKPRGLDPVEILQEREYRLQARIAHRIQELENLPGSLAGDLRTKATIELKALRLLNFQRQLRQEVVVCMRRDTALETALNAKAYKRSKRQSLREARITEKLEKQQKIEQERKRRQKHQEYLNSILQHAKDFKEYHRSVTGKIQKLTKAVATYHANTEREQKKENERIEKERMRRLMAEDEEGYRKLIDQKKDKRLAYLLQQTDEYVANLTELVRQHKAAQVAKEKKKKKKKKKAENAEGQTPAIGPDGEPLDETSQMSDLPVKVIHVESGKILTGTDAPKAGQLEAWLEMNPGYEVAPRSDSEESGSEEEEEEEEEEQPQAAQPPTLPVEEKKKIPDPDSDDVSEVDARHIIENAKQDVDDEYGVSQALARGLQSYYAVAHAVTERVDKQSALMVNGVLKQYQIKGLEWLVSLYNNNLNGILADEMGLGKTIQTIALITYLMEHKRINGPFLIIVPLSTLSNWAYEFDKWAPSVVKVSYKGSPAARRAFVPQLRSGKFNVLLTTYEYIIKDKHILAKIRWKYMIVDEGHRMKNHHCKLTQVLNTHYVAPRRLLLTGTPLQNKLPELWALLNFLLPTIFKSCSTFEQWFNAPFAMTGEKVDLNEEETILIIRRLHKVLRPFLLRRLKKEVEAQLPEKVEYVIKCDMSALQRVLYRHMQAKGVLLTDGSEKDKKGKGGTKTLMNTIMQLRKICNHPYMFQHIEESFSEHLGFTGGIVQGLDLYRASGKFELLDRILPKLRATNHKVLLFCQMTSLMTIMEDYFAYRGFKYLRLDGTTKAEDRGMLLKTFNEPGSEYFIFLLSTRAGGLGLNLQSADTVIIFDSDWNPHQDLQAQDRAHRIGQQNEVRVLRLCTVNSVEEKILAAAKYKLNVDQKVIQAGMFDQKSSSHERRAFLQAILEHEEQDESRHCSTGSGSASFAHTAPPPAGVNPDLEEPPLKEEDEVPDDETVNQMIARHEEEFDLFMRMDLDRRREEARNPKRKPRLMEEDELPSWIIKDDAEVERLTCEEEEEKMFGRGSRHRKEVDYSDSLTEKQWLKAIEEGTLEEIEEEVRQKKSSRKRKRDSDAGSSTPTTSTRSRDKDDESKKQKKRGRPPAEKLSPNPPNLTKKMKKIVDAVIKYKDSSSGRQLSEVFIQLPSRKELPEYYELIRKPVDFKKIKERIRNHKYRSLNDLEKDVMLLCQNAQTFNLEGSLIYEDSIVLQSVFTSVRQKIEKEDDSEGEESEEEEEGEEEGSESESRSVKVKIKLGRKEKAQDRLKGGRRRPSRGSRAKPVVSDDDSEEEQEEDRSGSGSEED
# Procedure, shortened: (§1)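 Cells seeded one day before dosing, exposed to compounds for 20 hours, then fixed, permeabilized, blocked and stained overnight at 4 °C with anti-BRM or anti-BRG1 antibody. Nuclear fluorescence intensity per cell, normalized to a degrader control, gave concentration-response curves fitted with a floating maximum.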
# BRM = BRM (Homo sapiens, UniProt P51531); assay: Immunofluorescence assay for BRM degradation in SW1573 cells; type: cell-based; design: treated overnight at 4° C. with either BRM primary antibody (Cell signaling Cat #11966) or BRG primary antibody; endogenous in cells; host or cells: SW1573; conditions: 20 hours incubation; for DC50: immunofluorescence mean nuclear signal, read-out: BRM IF Degradation IC50; for BRM IF Degradation Sinf (%): normalized to a known degrader control
# BRM, sequence (P51531 whole entry): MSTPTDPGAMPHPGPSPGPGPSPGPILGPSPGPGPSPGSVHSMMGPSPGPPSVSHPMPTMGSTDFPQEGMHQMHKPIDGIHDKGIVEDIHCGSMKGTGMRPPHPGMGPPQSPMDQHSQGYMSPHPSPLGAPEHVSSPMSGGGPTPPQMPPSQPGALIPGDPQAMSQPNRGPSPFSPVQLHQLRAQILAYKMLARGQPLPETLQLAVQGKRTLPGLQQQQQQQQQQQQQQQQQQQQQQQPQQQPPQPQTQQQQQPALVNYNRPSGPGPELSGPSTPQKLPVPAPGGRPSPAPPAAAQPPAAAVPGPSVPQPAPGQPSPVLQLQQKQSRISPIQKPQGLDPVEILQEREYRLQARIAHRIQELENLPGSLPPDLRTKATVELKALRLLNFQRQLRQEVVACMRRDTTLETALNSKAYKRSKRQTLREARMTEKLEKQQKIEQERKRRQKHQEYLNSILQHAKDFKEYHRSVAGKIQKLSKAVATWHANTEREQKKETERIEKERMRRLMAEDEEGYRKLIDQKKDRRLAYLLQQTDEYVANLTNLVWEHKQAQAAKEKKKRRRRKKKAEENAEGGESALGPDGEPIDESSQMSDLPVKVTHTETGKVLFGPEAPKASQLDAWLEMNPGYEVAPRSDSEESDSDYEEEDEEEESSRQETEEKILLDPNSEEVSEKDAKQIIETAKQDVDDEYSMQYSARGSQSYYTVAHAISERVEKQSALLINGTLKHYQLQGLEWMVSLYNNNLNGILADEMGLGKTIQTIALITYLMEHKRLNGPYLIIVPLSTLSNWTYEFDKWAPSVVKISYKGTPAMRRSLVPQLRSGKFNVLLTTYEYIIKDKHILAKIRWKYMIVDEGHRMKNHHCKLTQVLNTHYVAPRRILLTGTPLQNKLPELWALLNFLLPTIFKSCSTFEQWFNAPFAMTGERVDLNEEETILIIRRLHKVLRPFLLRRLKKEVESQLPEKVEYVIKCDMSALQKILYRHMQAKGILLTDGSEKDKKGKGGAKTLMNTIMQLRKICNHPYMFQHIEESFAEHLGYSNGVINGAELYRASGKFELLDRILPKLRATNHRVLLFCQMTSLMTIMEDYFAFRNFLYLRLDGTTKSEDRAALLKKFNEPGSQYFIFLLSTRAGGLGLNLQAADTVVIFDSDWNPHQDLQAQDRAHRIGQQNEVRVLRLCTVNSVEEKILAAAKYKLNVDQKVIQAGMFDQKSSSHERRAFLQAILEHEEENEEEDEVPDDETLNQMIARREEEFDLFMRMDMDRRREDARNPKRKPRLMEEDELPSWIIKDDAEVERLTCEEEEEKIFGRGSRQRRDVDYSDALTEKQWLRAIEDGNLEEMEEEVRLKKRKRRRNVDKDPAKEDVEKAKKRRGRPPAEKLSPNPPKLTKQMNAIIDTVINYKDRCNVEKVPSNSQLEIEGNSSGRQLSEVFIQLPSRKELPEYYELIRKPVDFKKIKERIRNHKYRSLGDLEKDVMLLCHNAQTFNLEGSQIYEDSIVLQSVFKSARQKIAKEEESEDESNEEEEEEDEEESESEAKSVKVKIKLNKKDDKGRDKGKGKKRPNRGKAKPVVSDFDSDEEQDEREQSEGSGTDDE
# Procedure, shortened: as §1
smiles,measurement,setting,value
"CCOC1CN(CC#Cc2cc(N3C4CCC3CN(c3cc(-c5ccccc5O)nnc3N)C4)ccn2)C1 [Compound 224, 2-[6-amino-5-[8-[2-[3-(3-ethoxyazetidin-1-yl)prop-1-ynyl]-4-pyridyl]-3,8-diazabicyclo[3.2.1]octan-3-yl]pyridazin-3-yl]phenol]",DC50,BRG1,< 10 nM
same,Dmax,BRG1,30 to 70%
same,DC50,BRM,< 10 nM
same,BRM IF Degradation Sinf (%),BRM,E (E indicates −30%-−70%)
COC(=O)C1CN(CC#Cc2cc(N3C4CCC3CN(c3cc(-c5ccccc5O)nnc3N)C4)ccn2)C1 [Compound 225],DC50,BRG1,< 10 nM
same,Dmax,BRG1,0 to 30%
same,DC50,BRM,10 to 100 nM
same,BRM IF Degradation Sinf (%),BRM,E (E indicates −30%-−70%)
"Nc1nnc(-c2ccccc2O)cc1N1CC2CCC(C1)N2c1ccnc(C#CCN2CC(Oc3ccccc3)C2)c1 [Compound 226, 2-[6-amino-5-[8-[2-[3-(3-phenoxyazetidin-1-yl)prop-1-ynyl]-4-pyridyl]-3,8-diazabicyclo[3.2.1]octan-3-yl]pyridazin-3-yl]phenol]",DC50,BRG1,< 10 nM
same,Dmax,BRG1,30 to 70%
same,DC50,BRM,10 to 100 nM
same,BRM IF Degradation Sinf (%),BRM,E (E indicates −30%-−70%)
"CS(=O)(=O)C1CN(CC#Cc2cc(N3C4CCC3CN(c3cc(-c5ccccc5O)nnc3N)C4)ccn2)C1 [Compound 227, 2-[6-amino-5-[8-[2-[3-(3-methylsulfonylazetidin-1-yl)prop-1-ynyl]-4-pyridyl]-3,8-diazabicyclo[3.2.1]octan-3-yl]pyridazin-3-yl]phenol]",DC50,BRG1,> 100 nM
same,DC50,BRM,> 100 nM
same,BRM IF Degradation Sinf (%),BRM,E (E indicates −30%-−70%)
"Nc1nnc(-c2ccccc2O)cc1N1CC2CCC(C1)N2c1ccnc(C#CCN2CC(F)C2)c1 [Compound 228, 2-[6-amino-5-[8-[2-[3-(3-fluoroazetidin-1-yl)prop-1-ynyl]-4-pyridyl]-3,8-diazabicyclo[3.2.1]octan-3-yl]pyridazin-3-yl]phenol]",DC50,BRG1,< 10 nM
same,Dmax,BRG1,0 to 30%
same,DC50,BRM,< 10 nM
same,BRM IF Degradation Sinf (%),BRM,E (E indicates −30%-−70%)
"Nc1nnc(-c2ccccc2O)cc1N1CC2CCC(C1)N2c1ccnc(C#CCN2CC(N3CCOCC3)C2)c1 [Compound 229, 2-[6-amino-5-[8-[2-[3-(3-morpholinoazetidin-1-yl)prop-1-ynyl]-4-pyridyl]-3,8-diazabicyclo[3.2.1]octan-3-yl]pyridazin-3-yl]phenol]",DC50,BRG1,10 to 100 nM
same,Dmax,BRG1,30 to 70%
same,DC50,BRM,10 to 100 nM
same,BRM IF Degradation Sinf (%),BRM,F (F indicates −71%-−120%)
"Nc1nnc(-c2ccccc2O)cc1N1CC2CCC(C1)N2c1ccnc(C#CCN2CC3(CCCCC3)C2)c1 [Compound 230, 2-[6-amino-5-[8-[2-[3-(2-azaspiro[3.5]nonan-2-yl)prop-1-ynyl]-4-pyridyl]-3,8-diazabicyclo[3.2.1]octan-3-yl]pyridazin-3-yl]phenol]",DC50,BRG1,10 to 100 nM
same,Dmax,BRG1,30 to 70%
same,DC50,BRM,10 to 100 nM
same,BRM IF Degradation Sinf (%),BRM,E (E indicates −30%-−70%)
"Nc1nnc(-c2ccccc2O)cc1N1CC2CCC(C1)N2c1ccnc(C#CCN2CC(c3ccncn3)C2)c1 [Compound 231, 2-[6-amino-5-[8-[2-[3-(3-pyrimidin-4-ylazetidin-1-yl)prop-1-ynyl]-4-pyridyl]-3,8-diazabicyclo[3.2.1]octan-3-yl]pyridazin-3-yl]phenol]",DC50,BRG1,< 10 nM
same,Dmax,BRG1,30 to 70%
same,DC50,BRM,< 10 nM
same,BRM IF Degradation Sinf (%),BRM,E (E indicates −30%-−70%)
"Nc1nnc(-c2ccccc2O)cc1N1CC2CCC(C1)N2c1ccnc(C#CCN2CC(C(F)(F)F)C2)c1 [Compound 232, 2-[6-amino-5-[8-[2-[3-[3-(trifluoromethyl)azetidin-1-yl]prop-1-ynyl]-4-pyridyl]-3,8-diazabicyclo[3.2.1]octan-3-yl]pyridazin-3-yl]phenol]",DC50,BRG1,< 10 nM
same,Dmax,BRG1,30 to 70%
same,DC50,BRM,10 to 100 nM
same,BRM IF Degradation Sinf (%),BRM,E (E indicates −30%-−70%)
